The values below are quoted from earlier work in PMC9291711, “PLGA-modified Syloid®-based microparticles for the ocular delivery of terconazole: in-vitro and in-vivo investigations” (Drug Delivery, 2022).

Structures are written as SMILES.

The conditions of the data set: stated without reference.

In the case of `CC(C)N1CCN(c2ccc(OCC3COC(Cn4cncn4)(c4ccc(Cl)cc4Cl)O3)cc2)CC1` (centres unmarked) [Terconazole, terconazole], the Pka is listed as 8 and the “log P” value is 5.37.

What is called log P is the decadic logarithm of the partition coefficient of the neutral form, usually between octanol and water.
